Measurements published in US5212167A, “Modulation of receptor-mediated ion transport” (Trustees of Boston University, priority 1991, dated 1993).
Structures can show the parent of a compound that is named as a salt.

Tests used:
NMDA receptor = assay: Whole-cell patch clamp, NMDA-induced currents in cultured chick spinal cord neurons; details: for enhancement of the NMDA response (percent change): 100 μM pregnenolone sulfate
Procedure: (§1) Cultures of dissociated spinal cord neurons were prepared from 7-day chick embryos as described by Wu et al. (Mol. Pharmacol. 37:597-602 (1990)). Briefly, dissociated cells were plated on collagen-coated 35-mm tissue culture dishes in Eagle's minimum essential medium supplemented with 2.4 mM glutamine, 10% (v/v) heat-inactivated horse serum, 5% (v/v) chick embryo extract, 100 units/ml penicillin, and 100 μg/ml streptomycin. Cultures were maintained in a humidified atmosphere of 5% CO2 /95% air at 37° C. Cytosine arabinoside (1 μM) was added after 36 hours to control the proliferation of non-neuronal cells. This medium was removed one day later and replaced with a similar medium supplemented with 20.5 mM glucose and 18 mM KCl, and containing 2.5% chick embryo extract. Fresh medium was added twice weekly. Cultured neurons were used in experiments 2-4 weeks after plating.
(§2) Electrophysiological experiments were carried out in 35-mm tissue culture dishes on the stage of an inverted phase-contrast microscope. Whole-cell currents were recorded by the whole-cell variant of the patch clamp technique described by Hamill et al. (Pflugers Arch. 391:85-100 (1981)). Patch electrodes were fabricated with a double pull from thin-wall borosilicate glass microcapillary pipets (Fischer) on a David Kopf vertical pipet puller (Model 700D). Electrode resistance was 5.2±0.12 M.OMEGA. (n=65) when filled with intracellular solution. The electrode solution usually contained (in mM): 10 KCl, 3 sodium gluconate, 140 potassium gluconate, 11 EGTA and 10 HEPES (pH adjusted to 7.2 with KOH). For GABA experiments, a high Cl-intracellular solution (in mM, 140 KCl, 3 NaCl, 1 MgCl2, 11 EGTA and 10 HEPES, pH adjusted to 7.2 with KOH) was used. The bath solution contained (in mM): 150 NaCl, 4 KCl, 1 CaCl2, 1 MgCl2 and 10 HEPES (pH adjusted to 7.2 with NaOH). Since NMDA-induced currents are subject to voltage-dependent block by extracellular Mg^2+, no magnesium salts were added to the bath solution. All experiments were performed at room temperature (23°-25° C.).
Recordings were made using a Yale MK V amplifier. After forming a tight seal (typically 1-10 G.OMEGA.) capacitative transients were minimized. The patch of membrane under the pipet tip was then ruptured by gentle suction to obtain the whole-cell configuration. Cells with series resistance greater than 10 M.OMEGA. were rejected. Series resistance, which initially measured 7.3± 0.14 M.OMEGA. (n=65), was compensated (>60%). Only cells with resting membrane potential more negative than -55 mV and input resistance in excess of 150 M.OMEGA. were used. All recordings were made with the cell membrane potential clamped at -70 mV. Currents were filtered at 1 kHz using an 8-pole Bessel filter and digitized (40 ms/point) using an on-line data acquisition system (pClamp, Axon Instruments).
Drug solutions were applied to single neurons by pressure ejection (15 psi) from 7-barrel pipets (Choi et al., J. Neurophysiol 45:605-620 (1981) and Chan, C. Y. and D. H. Farb, J. Neurosci. 5:2365-2373 (1985)). Pipets were pulled from Omega dot tubing to a tip diameter of about 1 μm per barrel and broken back to about 3-5 μm per barrel after filling. Seven-barrel pressure pipets were positioned approximately 50μm from the neuronal soma. Under these conditions, the drug solution in the pressure pipet rapidly and effectively replaces the solution surrounding the target neuron, with less than 10% dilution (Choi and Fischbach, J. Neurophysiol. 45:605-620 (1981)).
All drugs were obtained from Sigma, with the exception of AMPA hydrobromide (Research Biochemicals) and pregnenolone sodium sulfate (Steraloids). Stock solutions of steroids were prepared in dimethyl sulfoxide (final concentration, 0.5%, v/v).

GABA receptor = assay: Whole-cell patch clamp, GABA-induced currents in cultured chick spinal cord neurons; type: cell-based
Procedure: as §1
Electrophysiological experiments were carried out in 35-mm tissue culture dishes on the stage of an inverted phase-contrast microscope. Whole-cell currents were recorded by the whole-cell variant of the patch clamp technique described by Hamill et al. (Pflugers Arch. 391:85-100 (1981)). […]
(§3) Recordings were made using a Yale MK V amplifier. […] Series resistance, which initially measured 7.3± 0.14 M.OMEGA. […]

[1] = tested on: non-NMDA glutamate receptor; assay: Whole-cell patch clamp, kainate- or AMPA-induced currents in cultured chick spinal cord neurons; type: cell-based
Procedure: as §1
as §2, with “All experiments were performed at room temperature (23°-25° C.).” left out
as §3

glycine receptor = assay: Whole-cell patch clamp, glycine-induced currents in cultured chick spinal cord neurons; type: cell-based; details: for inhibition of the glycine response: 50 μM glycine, n=6
Procedure: as §1
as §2, with “All experiments were performed at room temperature (23°-25° C.).” left out
as §3

`C[C@]12CCC(=O)C=C1CC[C@@H]1[C@@H]2[C@@H](O)C[C@@]2(C)[C@H]1CC[C@]2(O)C(=O)CO` [Hydrocortisone, reference compound] was tested, and the “enhancement of NMDA-induced current (in words)” value (NMDA receptor; 100 μM steroid) was “failed to enhance” and the “inhibition of the NMDA response” value (NMDA receptor; 100 μM steroid, n=6, mean ±SEM) was 15±2.4%.

For `NCC(=O)O` [glycine, reference compound], the “potentiation of the NMDA response by glycine in the presence of pregnenolone sulfate” value (NMDA receptor; 10 μM glycine, 100 μM pregnenolone sulfate present) was “still evident”.

With `CC(=O)C1CCC2C3CC=C4CC(OS(=O)(=O)O)CCC4(C)C3CCC12C` (centres unmarked) [pregnenolone sulfate] the “potentiation of the NMDA response in the presence of maximal glycine versus without added glycine” value (NMDA receptor; 10 μM glycine present) was “did not differ significantly”, the “increase of response to NMDA” value (NMDA receptor; 30 μM NMDA, 100 μM steroid, -70 mV) was “approximately threefold” and the “enhancement of the NMDA response (percent change)” value (NMDA receptor; 100 μM NMDA, n=4, mean ±SEM) was 86±7.5%. For the same molecule, the “enhancement of the NMDA response (percent change)” value (NMDA receptor; 1 mM NMDA, n=2, mean ±SEM) was 1.3±1.3%, the “increase in the ionic current across the cellular membrane” value (NMDA receptor; appropriate concentration (summary statement)) was 3 fold and the EC50 (NMDA receptor; read-out: EC50 for enhancement of the NMDA response, FIG. 2 dose response) was 57 µM. The EC50 (GABA receptor; FIG. 2 dose response, read-out: EC50 for inhibition of the GABA response) was 7 µM, the “effect on GABA receptor-mediated ion channel activity (in words)” value (GABA receptor; summary statement) was “slight decrease” and the “effect on response elicited by AMPA” value ([1]; AMPA-induced current) was “slightly inhibited”. For the same molecule, the “effect on response elicited by kainate” value ([1]; kainate-induced current) was “slightly inhibited”, the “effect on non-NMDA glutamate-induced activity (in words)” value ([1]; summary statement) was “inhibited” and the “inhibition of the glycine response” value (glycine receptor; 5 μM pregnenolone sulfate) was 61±2%. For the same molecule, the “inhibition of the glycine response” value (glycine receptor; 100 μM pregnenolone sulfate) was 91±2% and the “effect on glycine receptor-mediated ion channel activity (in words)” value (glycine receptor; summary statement) was “slight decrease”.
